Measured values from patent US20250051307A1, “SALT OF 3,4-DIHYDROISOQUINOLINE COMPOUND AND USE THEREOF” (CSPC ZHONGQI PHARMACEUTICAL TECHNOLOGY(SHIJIAZHUANG) CO., …, priority 2021, published 2025).
Like-named read-outs stand apart in the source and are kept apart here. Marks after values point to notes of the source that are not given here. One block for each compound: values may come before it.

Tests used:
[1] = Solid stability of crystal forms under different humidity conditions (XRPD); format: physicochemical; details: 7 days
Excerpt: (§1) The samples were subjected to X-ray powder diffraction to investigate the stability of the samples under different conditions, and the results are shown in the following table.

[2] = Solid stability of crystal forms at high temperature (XRPD); format: physicochemical; details: 60° C., sealed, 7 days
Excerpt: as §1

[3] = Solubility determination in water and biological media; format: physicochemical; details: for solubility at 24 h: thermodynamic from solid, 37° C., solubility is in free state; for Solubility compared with the free base sample: water and FassIF media, vs Preparation Example 1
Excerpt: • FaSSIF: human fasted state simulated intestinal fluid; FeSSIF: human fed state simulated intestinal fluid; SGF: human fasted state simulated gastric fluid.

[4] = Pharmacokinetic experiment in SD rats; format: in vivo; details: 25 mg/kg by gavage; for Cmax / Tmax / AUC(0-t): male, Sprague-Dawley (SD), rat, po, plasma; for AUC(0-t): read-out: AUC0-24h
Experimental: SD rats (male, 180 g to 200 g, Beijing Vital River Laboratory Animal Technology Co., Ltd.) were administered with the test compounds (solvent: 2% DMSO+98% (0.2 g/mL) hydroxypropyl-β-cyclodextrin, dosing volume: 5 mL/kg) by gavage. Blood was collected from the orbits of the rats at different points in time (0.25, 0.5, 1, 2, 4, 8, 24 h) after administration. The collected whole blood was anticoagulated with heparin sodium and centrifuged at 3000 g to obtain rat plasma samples, and methanol was added thereto to precipitate proteins. The drug concentration in rat plasma after administration was determined by HPLC-MS/MS method. A drug concentration-time curve was plotted and the pharmacokinetic parameters were calculated. Pharmacokinetic behaviors of the compounds after administration in rats were described by means of the parameter estimation of non-compartmental model based on statistical moment theory.

PRMT5 = PRMT5 (Homo sapiens (Human), UniProt O14744); experiment: Radiometric assay for PRMT5 based on FlashPlate technology; format: biochemical
Experimental: The radiometric assay for PRMT5 based on FlashPlate technology was adopted to determine IC50 of the test compound.
After dissolved in dimethyl sulfoxide respectively, the test compounds were added into an Echo Qualified 384-well plate and diluted to the desired concentrations. The diluted test compounds were transferred from the Echo Qualified 384-well plate to a 384-well reaction plate using an Echo 550 instrument, and dimethyl sulfoxide was transferred into both the control and blank wells. […] At a volume of 15 μL/well, the 1.67× enzyme solution was added into wells of the 384-well reaction plate. […] The reaction plate was centrifuged at 1000 rpm for 1 min, and incubated at room temperature for 15 min. […] From each well of the test plate, 25 μL was measured and transferred to Flashplate and left at room temperature for 1 h. Thereafter, the Flashplate was washed with 0.1% Tween-20 solution three times. Readings were taken with MicroBeta 2. The data was converted into the inhibition rate data. Inhibition rate=(conversion ratecontrol well−conversion ratecompound well)/(conversion ratecontrol well−conversion rateblank well)×100%.

[5] = test system: MV4-11 subcutaneous xenograft; experiment: MV4-11 subcutaneous xenograft model, in vivo efficacy; set-up: species or system NOD-SCID mice; details: for Body Weight Change (%): 11 consecutive days; for d9 Tumor Volume (mm^3): 9th day after administration; for d0 Tumor Volume (mm^3): before grouping for administration, 100 mg/kg group; for RTV (d9): d9 tumor volume/d0 tumor volume; for Tumor Weight: end of experiment; for Tumor Weight / Tumor weight inhibition rate (%): 11 days; for Tumor weight inhibition rate (%): vs vehicle group
Experimental: Experimental female NOD-SCID mice, SPF grade, 4 to 5 weeks, were purchased from Beijing Vital River Laboratory Animal Technology Co., Ltd. The mice were intraperitoneally injected with cyclophosphamide at a dose of 100 mg/kg one day before cell inoculation. The human acute monocytic leukemia cell line MV4-11 (1×10^7/0.1 ml/mouse) was subcutaneously inoculated into forelimb axilla of mice to establish a subcutaneous xenograft model. When the tumor volumes reached about 110 mm^3 (10 days after inoculation), the mice were equally grouped according to the tumor volume, with 5 mice in each group, i.e., vehicle group (2% DMSO+98% (0.2 g/mL) hydroxypropyl-β-cyclodextrin) and test drug groups. For the test drug groups, the dose of administration was 100 mg/kg, the dosing volume was 10 mL/kg, the dosing frequency was BID, the tumor diameters were measured twice per week, and the data was recorded. The mice were administered for 11 consecutive days. When the experiment ended, the tumors were dissected and weighed.
The body weight growth rate, the tumor volume, and the tumor weight inhibition rate were calculated according to the following equations: body weight growth rate=X(Wi-W0)/XW0×100%, where Wi denoted the body weight of a mouse in each test drug group on the n^th day, and W0 denoted the body weight of a mouse in each test drug group at the beginning of administration; tumor volume (V)=½× a× b^2, where a and b denoted the long diameter and the short diameter of a tumor, respectively; d0 denoted before grouping for administration, d9 denoted the 9th day after administration, relative tumor volume (RTV)=d9 tumor volume/d0 tumor volume; tumor weight inhibition rate=(tumor weightvehicle group−tumor weighttest drug group)/tumor weightvehicle group×100%.

[6] = test system: human acute monocytic leukemia cell line MV4-11; experiment: MV4-11 MTT cell growth inhibition; format: cell-based
Excerpt: The complete medium required for the culture of human acute monocytic leukemia cell line MV4-11 (Shanghai Cell Bank) for experiment was IMDM (CatNO. 12440-053, gibco) supplemented with 10% FBS (Cat NO. SA311.02, cellmax). […] The experiment reagents included dimethyl sulfoxide (Tianjin Kemiou Chemical Reagent Co., Ltd.) and MTT (THIAZOLYL BLUE TETRAZOLIUM BROMIDE, CAS. NO. 298-93-1, VWR). The control compound GSK3326595 for experiment was homemade or commercially available. The test compound was encapsulated and stored at 4° C.
Dimethyl sulfoxide was used as a vehicle to fully dissolve the test compound, thereby formulating a stock solution at a concentration of 5×10^−2 mol/L. The stock solution was stored at −20° C. With the complete medium as diluent, the test compound was subjected to gradient dilution to afford dilutions at different concentrations for standby application. In a 96-well culture plate, the suspension of the human acute monocytic leukemia cell line MV4-11 in the complete medium, at a volume of 100 μL/well (2×10^3 cells/well), was added. […] The OD value at 550 nm was measured with a microplate reader. […] The cell growth inhibition rate was calculated according to the following equation: […]
According to the inhibition rate at each concentration, the half maximal inhibitory concentration IC50 value was calculated using the SPSS software.

[7] = Long-term (three months) stability of Crystal Form I; format: physicochemical
[8] = FaSSIF (human fasted state simulated intestinal fluid), FassIF, read-out: 24 h solubility (mg/mL) FassIF
[9] = SGF (human fasted state simulated gastric fluid), simulated gastric fluid, SGF, read-out: 24 h solubility (mg/mL) SGF
[10] = water, read-out: 24 h solubility (mg/mL) Water
[11] = vs positive control drug GSK3326595

Sequence of PRMT5 (O14744 whole entry): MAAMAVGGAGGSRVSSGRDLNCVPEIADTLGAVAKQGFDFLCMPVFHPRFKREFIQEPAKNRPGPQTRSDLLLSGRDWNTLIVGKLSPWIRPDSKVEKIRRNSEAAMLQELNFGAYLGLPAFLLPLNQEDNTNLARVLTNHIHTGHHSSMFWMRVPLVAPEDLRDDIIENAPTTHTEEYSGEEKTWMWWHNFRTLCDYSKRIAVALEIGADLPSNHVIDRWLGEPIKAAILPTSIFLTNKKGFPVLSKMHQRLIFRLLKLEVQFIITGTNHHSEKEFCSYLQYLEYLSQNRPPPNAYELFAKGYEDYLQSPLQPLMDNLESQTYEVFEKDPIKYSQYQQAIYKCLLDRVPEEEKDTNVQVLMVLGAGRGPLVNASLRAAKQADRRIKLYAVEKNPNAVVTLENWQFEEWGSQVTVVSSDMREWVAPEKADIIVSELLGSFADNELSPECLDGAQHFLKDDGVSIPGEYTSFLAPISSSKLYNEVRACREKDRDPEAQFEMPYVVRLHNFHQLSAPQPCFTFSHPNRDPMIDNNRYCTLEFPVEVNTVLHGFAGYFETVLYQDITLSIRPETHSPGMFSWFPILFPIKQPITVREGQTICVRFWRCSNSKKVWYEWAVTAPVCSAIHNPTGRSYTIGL
Sequence of PRMT5 (Q9BQA1 whole entry partner): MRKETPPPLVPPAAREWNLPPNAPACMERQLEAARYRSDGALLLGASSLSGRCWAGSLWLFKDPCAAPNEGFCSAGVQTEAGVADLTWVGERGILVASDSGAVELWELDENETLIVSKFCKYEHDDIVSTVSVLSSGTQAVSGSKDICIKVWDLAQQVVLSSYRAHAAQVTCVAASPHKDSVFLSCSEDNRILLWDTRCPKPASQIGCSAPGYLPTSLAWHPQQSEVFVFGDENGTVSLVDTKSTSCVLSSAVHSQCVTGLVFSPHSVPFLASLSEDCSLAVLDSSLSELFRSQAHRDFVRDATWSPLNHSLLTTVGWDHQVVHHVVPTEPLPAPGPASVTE

Compound: CON=C(C)C(=O)N1CCC(Nc2cc(C(=O)NC[C@H](O)CN3CCc4ccccc4C3)ncn2)CC1.O=C(O)C[C@H](O)C(=O)O [Example 2]
- Crystal form after storage (XRPD) ([1]; 23° C./33% RH): Crystal Form II
- Crystal form after storage (XRPD) ([1]; 25° C./60% RH): Crystal Form II
- Crystal form under different humidity conditions (conclusion) [1]: unchanged
- Crystal form after storage (XRPD) [2]: Crystal Form II

Compound: CON=C(C)C(=O)N1CCC(Nc2cc(C(=O)NC[C@H](O)CN3CCc4ccccc4C3)ncn2)CC1.O=C(O)C[C@H](O)C(=O)O [Example 7]
- solubility at 24 h [3, 8]: > 4.7 mg/mL
- solubility at 24 h [3, 9]: > 4.8 mg/mL
- solubility at 24 h [3, 10]: > 4.9 mg/mL
- Solubility compared with the free base sample [3]: significantly higher

Compound: CON=C(C)C(=O)N1CCC(Nc2cc(C(=O)NC[C@H](O)CN3CCc4ccccc4C3)ncn2)CC1.O=C(O)C[C@H](O)C(=O)O [Example 4]
- Crystal form after storage (XRPD) ([1]; 23° C./33% RH): Crystal Form IV
- Crystal form after storage (XRPD) ([1]; 25° C./60% RH): Crystal Form IV
- Crystal form under different humidity conditions (conclusion) [1]: unchanged

Compound: CON=C(C)C(=O)N1CCC(Nc2cc(C(=O)NC[C@H](O)CN3CCc4ccccc4C3)ncn2)CC1.O=C(O)C[C@H](O)C(=O)O [Example 5]
- Crystal form after storage (XRPD) [2]: Crystal Form V

Compound: CON=C(C)C(=O)N1CCC(Nc2cc(C(=O)NC[C@H](O)CN3CCc4ccccc4C3)ncn2)CC1.O=C(O)C[C@H](O)C(=O)O [Example 1]
- Crystal Form after storage ([7]; 3 months, long-term stability): Crystal Form I
- Purity after storage ([7]; 3 months, long-term stability): 99.32%
- Initial purity ([7]; before long-term storage): 99.43%

Compound: CON=C(C)C(=O)N1CCC(Nc2cc(C(=O)NC[C@H](O)CN3CCc4ccccc4C3)ncn2)CC1.O=C(O)C[C@H](O)C(=O)O [Example 3]
- Crystal form after storage (XRPD) ([1]; 23° C./33% RH): Crystal Form III
- Crystal form after storage (XRPD) ([1]; 25° C./60% RH): Crystal Form III
- Crystal form under different humidity conditions (conclusion) [1]: unchanged

Now from value to compound, other results behind:

- Absorption in rats compared with GSK3326595 [4]: better absorbed
- Cmax [4]: 2370 ng/mL
- Tmax [4]: 0.333 h
- AUC(0-t) [4]: 4410 ng·h/mL
- IC50 (PRMT5; PRMT5 5 nM, [3H]-SAM, 25° C. 60 min, read-out: Enzymology (IC50)): 31 nM
- Inhibitory activity at enzyme level compared with GSK3326595 (PRMT5; [11]): better inhibitory activities
- solubility at 24 h [3, 8]: 1.7 mg/mL
- solubility at 24 h [3, 9]: > 4.4 mg/mL
- solubility at 24 h [3, 10]: 0.39 mg/mL
Compound: CON=C(C)C(=O)N1CCC(Nc2cc(C(=O)NC[C@H](O)CN3CCc4ccccc4C3)ncn2)CC1 [Compound of formula (A)]
- Tumor-inhibitory activity in MV4-11 xenografts model ([5]; 100 mg/kg BID): significant tumor-inhibitory activity
- Body Weight Change (%) ([5]; 100 mg/kg BID): −6.1%
- d9 Tumor Volume (mm^3) ([5]; 100 mg/kg BID): 55.7 ± 19.7 ***## mm^3
- d0 Tumor Volume (mm^3) [5]: 165.3 ± 27.5 mm^3
- RTV (d9) ([5]; 100 mg/kg BID): 0.4 ± 0.1
- Tumor Weight ([5]; 100 mg/kg BID): 0.0648 ± 0.0267 g
- Tumor weight inhibition rate (%) ([5]; 100 mg/kg BID): 91.1%
- Inhibitory activity at cell level compared with GSK3326595 [6, 11]: better inhibitory activities

- Cmax [4]: 60.3 ng/mL
- Tmax [4]: 2.67 h
- AUC(0-t) [4]: 589 ng·h/mL
- IC50 ([6]; Homo sapiens, MV4-11, 144 h, MTT on Day 6): 6.68 nM
Compound: CC(=O)N1CCC(Nc2cc(C(=O)NC[C@H](O)CN3CCc4ccccc4C3)ncn2)CC1 [GSK3326595, reference compound]
- Body Weight Change (%) ([5]; 100 mg/kg BID): −6.8%
- d9 Tumor Volume (mm^3) ([5]; 100 mg/kg BID): 135 ± 43** mm^3
- d0 Tumor Volume (mm^3) [5]: 165.2 ± 23.1 mm^3
- RTV (d9) ([5]; 100 mg/kg BID): 0.8 ± 0.2
- Tumor Weight ([5]; 100 mg/kg BID): 0.1124 ± 0.0764 g
- Tumor weight inhibition rate (%) ([5]; 100 mg/kg BID): 84.5%

- solubility at 24 h [3, 8]: > 9.1 mg/mL
- solubility at 24 h [3, 9]: > 9.2 mg/mL
- solubility at 24 h [3, 10]: > 9.1 mg/mL
- Solubility compared with the free base sample [3]: significantly higher
Compound: CON=C(C)C(=O)N1CCC(Nc2cc(C(=O)NC[C@H](O)CN3CCc4ccccc4C3)ncn2)CC1.O=C(O)C(=O)O [Example 11]
